Data from US9623031B2, “Compositions, methods and kits for treating cancer” (priority 2011, dated 2017).
Entries after “also recorded” stand apart in the source; their conditions may differ.

Legend:
[1] = test system: BCR-ABL^+LSC (Kit^+Sca1^+Lin^−GFP^+); experiment: Apoptosis of BCR-ABL+ LSCs treated ex vivo (annexin V, flow cytometry); assay type: cell-based, mouse; settings: for apoptosis of Sca1+GFP+Kit+ BCR-ABL+LSC from spleen: 25-1000 nM, 36 h
Protocol: Apoptosis. Apoptosis of LSCs was performed using annexin V as described below in Supplementary Information and Methods.
Apoptosis. The LSCs were diluted in DMEM, resuspended using a 16-gauge needle, and collected by centrifugation. 1×10^5 cells were resuspended in 200 μl of binding buffer (0.1 M HEPES with 1.4 M NaCl, 25 mM CaCl2, pH 7.4). Annexin V FITC (BD Biosciences) was incubated with cells for 15 min on ice followed by flow cytometric analysis.
The ability of CyPGs derived from arachidonic acid (2 series PGs) to induce apoptosis was tested in cultures of LSCs from FV infected mice and in the murine CML model. […] 15d-PGJ2 is known as a PPAPγ agonist. […] In FIG. 7C Δ^12-PGJ3, 15d-PGJ2 or 9,10-dihydro-15d-PGJ2 are tested for their ability to induce apoptosis in a murine CML model. […] The cells were stained with annexin V-FITC and analyzed by flow cytometry. Representative of N=4. […] Inset: Effect of rosiglitazone on the apoptosis of LSC. Rosiglitazone (0.1-2.0 μM) was incubated with LSC in the culture media for 36 h as described earlier and the cells were subjected to annexin-V staining followed by flow cytometry. […] LSC were treated ex vivo with indicated concentrations of each compound for 36 h.
Following 36 h of incubation, apoptotic cells were quantified by annexin V staining. […] In a related study to address if Δ^12-PGJ3 treatment would cause any degranulation of granulocytes, a rat basophilic cell line ([…]) was treated with 100 nM Δ^12-PGJ3 and the degranulation was followed by quantitating the release of histamine and a second marker of degranulation, hexoseaminidase.
In this experiment, 500,000 BCR-ABL+ LSCs were plated in a 24-well plate followed and were treated with 25 nM PGD2Me or 100 nM ZK118182 (both are agonists of DP) for 24 h. GFP^+ cells were analyzed by flow cytometry. These agonists were purchased from Cayman Chemicals, MI.

[2] = test system: murine erythroleukemia (MEL) cells; experiment: MEL cell apoptosis and viability (MTT, CCK-8); assay type: cell-based, mouse; settings: anti-leukemic drugs 1 μM, nutlin 5 μM, 24 h, MTT/CCK-8
Protocol: Cell culture. Murine erythroleukemia (MEL) cells were cultured in DMEM with 10% FBS. In order to examine the production 3-series PGs, BALB/c-derived RAW264.7 macrophage-like cells (ATCC) were cultured in DMEM containing 5% FBS, 250 nM sodium selenite, and 50 μM EPA (as BSA conjugate) for 72 h followed by stimulation with E. coli endotoxin lipopolysaccharide (LPS; Serotype 0111B4; 50 ng/ml) for 30 min. The cells were cultured in fresh DMEM for an additional 24-144 h. Cells cultured with cell culture-grade fatty acid free BSA (Sigma Aldrich) served as a control. Culture media was withdrawn at various times and analyzed for 3-series PGs as described below. Total RNA was isolated from cells or tissues using Trizol reagent as per the instructions of the supplier (Invitrogen, Carlsbad, Calif.) and cDNA was prepared using a High Capacity cDNA Reverse Transcriptase kit (Applied Biosystems, Foster City, Calif.). Semiquantitative RT-PCR for p53 and β-actin was performed with primers as described in Supplementary Methods. Nuclear and cytoplasmic protein extracts of LSCs were prepared using standard methods previously described (Vunta H et al., J Biol Chem. 2007; 282:17964-17973).
Cell viability studies. MEL cells were cultured in DMEM containing 10% FBS and treated with various commonly used anti-leukemic drugs such as daunorubicin (DNR), mitoxantrone (MIT), and cytarabine (CYT) at a final concentration […] for 24 h. […] After 24 h of drug treatment, cell proliferation was measured by MTT assay with CCK-8 kit from Dojindo Molecular Technologies, Inc. (Gaithersburg, Md.). All viability values reported are relative to untreated cells (UT) that was designated to be 100%. Results represent the mean±SEM of three independent observations.
In order to address whether MEL cells are resistant in general to chemotherapy agents, we tested whether MEL cells can be killed by apoptosis when treated with standard anti-leukemia drugs. Treatment with various commonly used anti-leukemic drugs such as daunorubicin (DNR), mitoxantrone (MIT), and cytarabine (CYT) at a final concentration 1 μM for 24 h. […] After 24 h of drug treatment, cell proliferation was measured by MTT assay with CCK-8 kit from Dojindo Molecular Technologies, Inc. (Gaithersburg, Md.). […] The results represent the mean±SEM of three independent observations.

[3] = test system: FV-LSCs (M34^+Kit^+Sca1^+); experiment: Apoptosis of FV-LSCs treated ex vivo (annexin V, flow cytometry); assay type: cell-based, mouse; settings: 25 nM, 36 h; for apoptosis of FV-LSCs: annexin V
Protocol: On day 14 after infection, spleens were isolated and a single cell suspension of spleen cells was generated. The cells were filtered through a 70 μm sterile filter and flow-through cells were resuspended in RBC lysis buffer followed by centrifugation. Leukemia stem cells were isolated by FACS. Spleen cells were labeled with anti-Kit, Sca1 (BioLegend, San Diego, Calif.) and M34 antibodies. […] As indicated M34^+Kit^+Sca1^+ cells were cultured in Methocult media (Stem Cell Technologies Vancouver BC) M3334 supplemented with 200 ng/ml Sonic Hedgehog (Shh), 15 ng/ml bone morphogenetic protein-4 (BMP4) (both from R&D Systems Minneapolis, Minn.), and 50 ng/ml stem cell factor (SCF; Peprotech).
The cells were stained with annexin V-FITC and analyzed by flow cytometry. […] Means±s.e.m. *P<0.001 compared to vehicle (PBS). […] Inset: Effect of rosiglitazone on the apoptosis of LSC. Rosiglitazone (0.1-2.0 μM) was incubated with LSC in the culture media for 36 h as described earlier and the cells were subjected to annexin-V staining followed by flow cytometry. […] LSC were treated ex vivo with indicated concentrations of each compound for 36 h. Mean±s.e.m. shown *P<0.001.

[4] = test system: LSCs; experiment: Apoptosis of LSCs as summarised in the discussion (model not specified or both models); assay type: cell-based, mouse; settings: FV-induced leukemia and BCR-ABL+ retrovirus-based murine CML model
[5] = test system: p53; experiment: p53 expression in FV-LSCs treated ex vivo (RT-PCR, nuclear extracts); assay type: cell-based, mouse
[6] = test system: FV-LSCs transplanted into BALB/c-Stk^−/− mice
Protocol: Transplant of FV-LSCs into BALB/c-Stk^−/− mice: FV-LSCs were generated as described above. 2.5×10^5 FV-LSCs were transplanted into BALB/c-Stk^−/− mice by retro-orbital injection. Six weeks after transplant the mice were treated with CyPGs or vehicle control as indicated in the text.
Treatment of Mice with PGs: Mice with FV-induced erythroleukemia or MIGR-BCR-ABL induced CML were treated on the indicated days with CyPGs. Mice were treated with a daily intraperitoneal injection of Δ^12-PGJ3 (0.01-0.1 mg/kg), 15d-PGJ2 (0.1 mg/kg), or 9,10-dihydro-15d-PGJ2 (0.1 mg/kg) for 7 days. All three compounds were formulated with hydroxypropyl-β-cyclodextrin (30% w/v; Sigma; vehicle control).
Stk^−/− mice are resistant to Friend virus infection so the leukemia developed by the transplanted mice is result of the transplanted LSCs and not FV infection. […] LSCs sorted from the spleens of FV-infected mice were transplanted into Stk^−/− mice (on a Balb/c background). After 6 weeks such mice were treated daily for 1 week with vehicle (hydroxypropyl-β-cyclodextrin), 15d-PGJ2 (0.05 mg/kg), or 9,10-dihydro-15d-PGJ2 (0.05 mg/kg) by intraperitoneal injection. The mice were sacrificed 51 days post LSC transplantation for analysis. An analysis of spleens of mice comparing splenomegaly in vehicle, 15d-PGJ2, or 9,10-dihydro-15d-PGJ2 treated transplanted mice was performed. Spleen weight compared to control (untransplanted mice) after treatment and WBC counts in the peripheral blood of the mice after treatment were examined, and a flow cytometric analysis of the spleen of untransplanted and LSC transplanted mice after treatment was performed. All data were mean±s.e.m. *p<0.05 compared to control or 9,10-dihydro-15d-PGJ2 treated groups. N=5 per group.

[7] = test system: Friend virus (FV)-induced erythroleukemia; experiment: FV-induced erythroleukemia in FV-infected mice, intraperitoneal treatment; assay type: in vivo, mouse
Excerpt: FV-induced erythroleukemia and production of FV leukemia stem cells (FV-LSCs): BALB/c mice were infected with FV as previously described (Subramanian A et al., J Virol. 2008; 82:382-393; Harandi O F et al., J Clin Invest. 2010; 120:4507-4519). On day 14 after infection, spleens were isolated and a single cell suspension of spleen cells was generated. The cells were filtered through a 70 μm sterile filter and flow-through cells were resuspended in RBC lysis buffer followed by centrifugation. Leukemia stem cells were isolated by FACS. Spleen cells were labeled with anti-Kit, Sca1 (BioLegend, San Diego, Calif.) and M34 antibodies. M34 is a monoclonal antibody that recognizes the envelope protein of SFFV (Chesebro B et al., Virology. 1981; 112:131-144) and was used as previously described (Subramanian A et al., J Virol. 2008; 82:382-393). As indicated M34^+Kit^+Sca1^+ cells were cultured in Methocult media (Stem Cell Technologies Vancouver BC) M3334 supplemented with 200 ng/ml Sonic Hedgehog (Shh), 15 ng/ml bone morphogenetic protein-4 (BMP4) (both from R&D Systems Minneapolis, Minn.), and 50 ng/ml stem cell factor (SCF; Peprotech). For CFU-FV assays, cells were plated in methylcellulose media containing fetal calf serum, but lacking added growth factors as previously described (Mager D L et al., Proc Natl Acad Sci USA. 1981; 78:1703-1707).
Complete blood counts of mice treated with Δ^12-PGJ3 (0.05 mg/kg) were examined. There is no difference in treated mice and untransplanted control mice in terms of white blood cell counts, red blood cell counts or platelet counts. Changes in hematological parameters in FV-infected mice upon treatment with CyPGs were examined. FV-infected Balb/c mice were treated with Δ^12-PGJ3 (0.05 mg/kg) intraperitoneally for 7 d following which the mice were sacrificed and hematological parameters were analyzed on an Advia blood analyzer. FV-infected Δ^12-PGJ3 treated mice were compared to infected vehicle controls. N=5 per group, all data are means±s.e.m. *P<0.05. 3% w/v hydroxypropyl-3-cyclodextrin was used as a vehicle in in vivo experiments. Spleen sizes of FV-infected mice that were treated with either vehicle, 9,10-dihydro-15d-PGJ2 (0.05 mg/kg), or 15d-PGJ2 (0.05 mg/kg) were examined; N=3 pre group. Hematological parameters of Balb/c uninfected, infected, and 15d-PGJ2 treated mice were examined. N=5 per group. All data were means±s.e.m. *P<0.05.
FV-LSC were targeted by 15d-PGJ2 in the spleen of FV-infected mice. FV-infected mice were treated with 15d-PGJ2 or 9,10-dihydro-15d-PGJ2 at 0.05 mg/kg for 7 d. The splenic LSC (M34^+Sca1^+Kit^+) cells were analyzed by flow cytometry on day 14 post infection. […] Uninfected and infected vehicle controls were used for comparison. N=3; *P<0.05. […] The colonies were counted 10-14 days after plating. N=3 mice per group, *p<0.05.

CS(=O)(=O)c1cc(F)cc2c3c(n(Cc4ccc(Cl)cc4)c12)[C@@H](CC(=O)O)CC3 [MK0824]
inhibition of Δ^12-PGJ3-induced apoptosis by DP antagonist ([1]; antagonist 10 nM, 2 h pretreatment, then 25 nM Δ^12-PGJ3, 36 h): inhibited

Nc1ccn([C@@H]2O[C@H](CO)[C@@H](O)[C@@H]2O)c(=O)n1 [cytarabine]
sensitivity of MEL cells to drugs [2]: caused significant apoptosis; also recorded: exhibited sensitivity

COc1cccc2c1C(=O)c1c(O)c3c(c(O)c1C2=O)C[C@@](O)(C(C)=O)C[C@@H]3O[C@H]1C[C@H](N)[C@H](O)[C@H](C)O1 [daunorubicin]
sensitivity of MEL cells to drugs [2]: caused significant apoptosis; also recorded: exhibited sensitivity

CC/C=C\C[C@H](O)/C=C/[C@H]1C(=O)C=C[C@@H]1C/C=C\CCCC(=O)O [PGJ3, reference compound]
increase in apoptosis of FV-LSCs [3]: 2 fold
targeting of LSCs for apoptosis [4]: ineffective

CCCCC[C@H](O)/C=C/[C@H]1C(=O)C=C[C@@H]1C/C=C\CCCC(=O)O [PGJ2]
p53 expression at transcript level ([5]; 10 or 25 nM, 12 h): only a minor degree
p53 expression after preincubation of compound with media ([5]; preincubated at 37° C. for 42 h before adding LSCs): increased expression of p53
apoptosis of FV-LSCs [3]: largely ineffective

CCCCC[C@H](O)C/C=C1/C(=O)C=C[C@@H]1C/C=C\CCCC(=O)O [Δ^12-PGJ2]
apoptosis of FV-LSCs [3]: able to induce apoptosis; also recorded: Responses similar to Δ^12-PGJ3
apoptosis of Sca1+GFP+Kit+ BCR-ABL+LSC from spleen [1]: active

O=C(NC(NC(=S)Nc1ccc(F)c([N+](=O)[O-])c1)C(Cl)(Cl)Cl)C(c1ccccc1)c1ccccc1 (stereo not shown) [CGK-733]
block of Δ^12-PGJ3-dependent p53 expression by ATM inhibitors ([5]; preincubation, then Δ^12-PGJ3): blocked the CyPG-dependent expression of p53

CCCCC/C=C/C=C1/C(=O)C=C[C@@H]1C/C=C\CCCC(=O)O [15d-PGJ2, reference compound]
hematocrit, WBC counts and reticulocyte counts ([6]; FV-induced leukemia, FIG. 3C): significantly decreased
LSCs (M34+Sca1+Kit+) in the spleen ([6]; flow cytometry after 1 week i.p. treatment): eradication of FV LSCs in the spleen and resolution of the diseases
LSCs (Sca1+Kit+M34+) in the spleen ([7]; 0.05 mg/kg i.p. 7 d, flow cytometry day 14 post infection): significant decrease in LSC numbers; also recorded: Identical results
total leukocyte and reticulocyte counts ([7]; i.p. 7 days): decreased to normal levels
Friend virus viral replication ([7]; mouse, in vivo): does not affect Friend virus viral replication
CFU-FV colony formation ([7]; spleen cells of treated mice plated without growth factors): significantly decreased the number of transformed leukemia cells
apoptosis of FV-LSCs [3]: able to induce apoptosis; also recorded: Responses similar to Δ^12-PGJ3
apoptosis of Sca1+GFP+Kit+ BCR-ABL+LSC from spleen [1]: active; also recorded: significantly increased their apoptosis

CCCCC[C@H](O)/C=C/[C@H]1C(=O)C[C@H](O)[C@@H]1C/C=C\CCCC(=O)OC [PGD2Me, 9α,15S-dihydroxy-11-oxo-prosta-5Z,13E-dien-1-oic acid, methyl ester]
apoptosis of BCR-ABL+ LSCs by synthetic DP agonists (GFP+ cells) ([1]; 25 nM PGD2Me or 100 nM ZK118182, 24 h): can induce apoptosis of LSCs

COc1ccc(C2=NC(c3ccc(Cl)cc3)C(c3ccc(Cl)cc3)N2C(=O)N2CCNC(=O)C2)c(OC(C)C)c1 (stereo not shown) [nutlin]
sensitivity of MEL cells to drugs [2]: not
sensitivity of MEL cells to drugs ([2]; listed as Nutlin): lack of activation of p53 and apoptosis

O=C1c2c(O)ccc(O)c2C(=O)c2c(NCCNCCO)ccc(NCCNCCO)c21 [mitoxantrone]
sensitivity of MEL cells to drugs [2]: caused significant apoptosis; also recorded: exhibited sensitivity

CC/C=C\C/C=C/C=C1/C(=O)C=C[C@@H]1C/C=C\CCCC(=O)O [15d-PGJ3, reference compound]
increase in apoptosis of FV-LSCs [3]: ~75%
targeting of LSCs for apoptosis [4]: targeted LSCs for apoptosis
